Measured values taken from patent US20260116867A1, “PROTEOLYSIS TARGETING CHIMERAS FOR HUMAN PREGNANE X RECEPTOR AND FOR DEGRADATION OF GSPT1” (ST. JUDE CHILDREN'S RESEARCH HOSPITAL, priority 2022, published 2026).

Tests used:
[1] = biological target: T1, PXR (Homo sapiens, UniProt O75469); assay: hPXR binding assay; conditions: for inhibition at 10 µM: read-out: Binding (% inhibition at 10 μM)
T1 sequence (O75469 1-434): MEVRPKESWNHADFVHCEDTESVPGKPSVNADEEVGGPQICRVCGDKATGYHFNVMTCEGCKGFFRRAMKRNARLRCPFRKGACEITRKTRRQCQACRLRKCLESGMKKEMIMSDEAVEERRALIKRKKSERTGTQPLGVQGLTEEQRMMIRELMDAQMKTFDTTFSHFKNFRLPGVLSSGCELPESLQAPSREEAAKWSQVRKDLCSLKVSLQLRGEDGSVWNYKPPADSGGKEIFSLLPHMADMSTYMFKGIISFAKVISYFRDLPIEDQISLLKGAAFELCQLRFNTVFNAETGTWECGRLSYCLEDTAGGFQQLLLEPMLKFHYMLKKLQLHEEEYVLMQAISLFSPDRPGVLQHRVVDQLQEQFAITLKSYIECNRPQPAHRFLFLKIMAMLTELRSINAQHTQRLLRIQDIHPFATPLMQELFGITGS

[2] = biological target: T1, PXR; assay: cell-based hPXR antagonistic assay; conditions: for inhibition at 10 µM: read-out: Antagonist (% inhibition at 10 μM); for IC50: read-out: Antagonist (IC50/μM)
[3] = biological target: T1, PXR; assay: cell-based hPXR inverse agonistic assay; conditions: for inhibition at 10 µM: read-out: Inverse agonist (% inhibition at 10 μM); for IC50: read-out: Inverse agonist (IC50/μM)
[4] = biological target: T2, His-CRBN/DDB1 (Homo sapiens, UniProt Q96SW2); assay: TR-FRET CRBN competitive binding assay (BODIPY FL thalidomide probe); conditions: TR-FRET competitive binding, derived from FIG. 9D; read-out: CRBN Binding EC50 ± SD
T2 construct: made in house; host or cells: Sf9 insect cells (baculovirus)
Method: The pFastBacDual-6xHis-CRBN/DDB1 plasmid was cloned by GenScript and used for baculoviral expression of His-CRBN and untagged DDB1. Protein was expressed and purified essentially as described previously. The bacmid was produced in MAX Efficiency DH10Bac Competent Cells (Thermo Fisher Scientific) according to the manufacturer's instructions. To generate the P1 virus, 1×10^6 Sf9 cells were plated in each well of a six-well plate in 2 mL Sf-900 III SFM and transfected with 7 μg bacmid using Cellfectin II reagent (Thermo Fisher Scientific). After 6 h at 27° C., the media was replaced with 2 mL fresh Sf-900 III SFM. After three days, the supernatant was collected, centrifuged at 500×g for 5 min to remove cells and debris, transferred to new tubes, and stored at 4° C. To generate P2 virus, 2 mL P1 virus was added to 1×10^8 Sf9 cells in 50 mL Sf-900 III SFM and shaken at 27° C. for three days. The supernatant was collected and clarified as above. For protein expression, 5 mL P2 virus was added to each liter of Sf cells (2×10^6 cells/mL) and shaken at 27° C. for three days. Cells containing expressed protein were pelleted by centrifugation at 500×g for 5 min, the supernatant was removed, and pellets were stored at −80° C. until processing. […] The suspension was incubated on ice for 1 h, gently sonicated, and centrifuged for 1 h at 40,000×g at 4° C. The supernatant was applied to Ni-NTA Superflow resin (QIAGEN) equilibrated with lysis buffer. The resin was washed with 10 column volumes (CV) of lysis buffer, and proteins were eluted with 10 CV lysis buffer containing 500 mM imidazole. The solution was diluted to 200 mM NaCl using lysis buffer without NaCl and applied to a HiTrap ANX FF (High Sub) column (Cytiva) equilibrated with ANX binding buffer [50 mM Tris (pH 7.5), 200 mM NaCl, 3 mM TCEP]. The column was washed with 10 CV ANX binding buffer followed by 10 CV ANX wash buffer [50 mM Bis-Tris (pH 6.0), 200 mM NaCl, 3 mM TCEP]. A 20 CV linear gradient was then immediately applied from ANX binding buffer to ANX binding buffer containing 1 M NaCl using an AKTA avant chromatography system (Cytiva). The purest fractions were applied to a HiLoad 26/600 Superdex 200 pg size exclusion column equilibrated with 10 mM HEPES (pH 7.0), 240 mM NaCl, and 3 mM TCEP. Pure protein was concentrated to 20-30 mg/mL in Pierce PES Protein Concentrators (Thermo Fisher Scientific), flash frozen in liquid nitrogen, and stored at −80° C.
The assay buffer composition was 50 mM Tris (pH 7.5), 0.1% Triton X-100, 0.01% bovine serum albumin, and 1 mM DTT. […] Lastly, 5 μL/well of 8 nM Tb-anti-His and 8 nM His-CRBN/DDB1 in assay buffer was added. […] The plates were then protected from light exposure and incubated for 60 minutes at room temperature (RT). After incubation, the TR-FRET signal from each well was collected with a PHERAstar FS Microplate Reader (BMG Labtech). The percent inhibition for each well was calculated using equation 2: […]

| Structure (SMILES) | IC50 [1] | inhibition at 10 µM [1] | inhibition at 10 µM [2] | IC50 [2] | inhibition at 10 µM [3] | IC50 [3] | EC50 [4] |
| --- | --- | --- | --- | --- | --- | --- | --- |
| COc1ccc(OC)c(-n2nnc(C(=O)Nc3cc(OCCCCNc4cccc5c4CN(C4CCC(=O)NC4=O)C5=O)cc(C(C)(C)C)c3)c2C)c1 (stereo not drawn) [Compound M14, N-(3-(tert-butyl)-5-(4-((2-(2,6-dioxopiperidin-3-yl)-1-oxoisoindolin-4-yl)amino)butoxy)phenyl)-1-(2,5-dimethoxyphenyl)-5-methyl-1H-1,2,3-triazole-4-carboxamide] | 0.13 ± 0.051 µM | 22% | 82% | 1.86 ± 0.53 µM | 94% | 0.43 ± 0.14 µM | – |
| COc1ccc(OC)c(-n2nnc(C(=O)Nc3cc(OCCCCCCCCN4C(=O)CCC(N5Cc6c(N)cccc6C5=O)C4=O)cc(C(C)(C)C)c3)c2C)c1 (stereo not drawn) [Compound N6, N-(3-((8-(3-(4-amino-1-oxoisoindolin-2-yl)-2,6-dioxopiperidin-1-yl)octyl)oxy)-5-(tert-butyl)phenyl)-1-(2,5-dimethoxyphenyl)-5-methyl-1H-1,2,3-triazole-4-carboxamide] | – | – | 11% | 6.51 ± 0.71 µM | – | – | – |
| COc1ccc(OC)c(-n2nnc(C(=O)Nc3cc(NC(=O)CCCNC(=O)COc4cccc5c4C(=O)N(C4CCC(=O)NC4=O)C5=O)cc(C(C)(C)C)c3)c2C)c1 (stereo not drawn) [Compound M15, N-(3-(tert-butyl)-5-(4-(2-((2-(2,6-dioxopiperidin-3-yl)-1,3-dioxoisoindolin-4-yl)oxy)acetamido)butanamido)phenyl)-1-(2,5-dimethoxyphenyl)-5-methyl-1H-1,2,3-triazole-4-carboxamide] | 2.19 ± 1.35 µM | 30% | – | – | – | – | – |
| COc1ccc(OC)c(-n2nnc(C(=O)Oc3cccc4c3C(=O)N(C3CCC(=O)NC3=O)C4=O)c2C)c1 (stereo not drawn) [Compound M2, 2-(2,6-dioxopiperidin-3-yl)-1,3-dioxoisoindolin-4-yl 1-(2,5-dimethoxyphenyl)-5-methyl-1H-1,2,3-triazole-4-carboxylate] | 2.69 ± 1.33 µM | 46% | – | – | – | – | – |
| COc1ccc(OC)c(-n2nnc(S(=O)(=O)c3ccc(C(C)(C)C)cc3)c2C)c1 [SPA70, reference compound] | – | – | – | – | – | – | > 3000 nM |
| COc1ccc(OC)c(-n2nnc(C(=O)Nc3cc(OCCOCCOCCOCCOCCOCCN4C(=O)CCC(N5C(=O)c6cccc(N)c6C5=O)C4=O)cc(C(C)(C)C)c3)c2C)c1 (stereo not drawn) [Compound N7, N-(3-((17-(3-(4-amino-1,3-dioxoisoindolin-2-yl)-2,6-dioxopiperidin-1-yl)-3,6,9,12,15-pentaoxaheptadecyl)oxy)-5-(tert-butyl)phenyl)-1-(2,5-dimethoxyphenyl)-5-methyl-1H-1,2,3-triazole-4-carboxamide] | 0.43 ± 0.027 µM | 48% | 83% | 0.52 ± 0.095 µM | 36% | 1.12 ± 0.3 µM | – |
| COc1ccc(OC)c(-n2nnc(C(=O)Nc3cc(OCCCCN4C(=O)CCC(N5Cc6c(N)cccc6C5=O)C4=O)cc(C(C)(C)C)c3)c2C)c1 (stereo not drawn) [Compound N4, N-(3-(4-(3-(4-amino-1-oxoisoindolin-2-yl)-2,6-dioxopiperidin-1-yl)butoxy)-5-(tert-butyl)phenyl)-1-(2,5-dimethoxyphenyl)-5-methyl-1H-1,2,3-triazole-4-carboxamide] | 0.087 ± 0.022 µM | 37% | 103% | 0.17 ± 0.0045 µM | 97% | 0.044 ± 0.008 µM | – |
| COc1ccc(OC)c(-n2nnc(C(=O)Nc3cc(C(C)(C)C)ccc3OCCCCCCCCOc3cccc4c3C(=O)N(C3CCC(=O)NC3=O)C4=O)c2C)c1 (stereo not drawn) [Compound M19, N-(5-(tert-butyl)-2-((8-((2-(2,6-dioxopiperidin-3-yl)-1,3-dioxoisoindolin-4-yl)oxy)octyl)oxy)phenyl)-1-(2,5-dimethoxyphenyl)-5-methyl-1H-1,2,3-triazole-4-carboxamide] | – | – | 30% | 2.52 ± 1.38 µM | – | – | – |
| COc1ccc(OC)c(-n2nnc(C(=O)Nc3cc(Nc4cccc5c4C(=O)N(C4CCC(=O)NC4=O)C5=O)cc(C(C)(C)C)c3)c2C)c1 (stereo not drawn) [Compound M5, N-(3-(tert-butyl)-5-((2-(2,6-dioxopiperidin-3-yl)-1,3-dioxoisoindolin-4-yl)amino)phenyl)-1-(2,5-dimethoxyphenyl)-5-methyl-1H-1,2,3-triazole-4-carboxamide] | 0.083 ± 0.0041 µM | 69% | 107% | 0.052 ± 0.0066 µM | 141% | 0.0078 ± 0.002 µM | – |
| COc1ccc(OC)c(-n2nnc(C(=O)Nc3cc(C(C)(C)C)ccc3OCCOCCOCCOCCN3C(=O)CCC(N4Cc5c(N)cccc5C4=O)C3=O)c2C)c1 (stereo not drawn) [Compound N2, N-(2-(2-(2-(2-(2-(3-(4-amino-1-oxoisoindolin-2-yl)-2,6-dioxopiperidin-1-yl)ethoxy)ethoxy)ethoxy)ethoxy)-5-(tert-butyl)phenyl)-1-(2,5-dimethoxyphenyl)-5-methyl-1H-1,2,3-triazole-4-carboxamide] | 7.23 ± 4.88 µM | 27% | 32% | 5 ± 1.16 µM | – | – | – |
| COc1ccc(OC)c(-n2nnc(C(=O)Nc3cc(C(C)(C)C)ccc3OCCCCNc3cccc4c3CN(C3CCC(=O)NC3=O)C4=O)c2C)c1 (stereo not drawn) [Compound M13, N-(5-(tert-butyl)-2-(4-((2-(2,6-dioxopiperidin-3-yl)-1-oxoisoindolin-4-yl)amino)butoxy)phenyl)-1-(2,5-dimethoxyphenyl)-5-methyl-1H-1,2,3-triazole-4-carboxamide] | – | – | 40% | 41 ± 5.3 µM | – | – | – |
| COc1ccc(OC)c(-n2nnc(C(=O)Nc3cc(C(C)(C)C)ccc3OCCOCCOCCOCCOCCOCCOc3cccc4c3C(=O)N(C3CCC(=O)NC3=O)C4=O)c2C)c1 (stereo not drawn) [Compound M20, N-(5-(tert-butyl)-2-((17-((2-(2,6-dioxopiperidin-3-yl)-1,3-dioxoisoindolin-4-yl)oxy)-3,6,9,12,15-pentaoxaheptadecyl)oxy)phenyl)-1-(2,5-dimethoxyphenyl)-5-methyl-1H-1,2,3-triazole-4-carboxamide] | 4.9 ± 0.8 µM | 64% | 58% | 6.33 ± 0.74 µM | – | – | – |
| COc1ccc(OC)c(-n2nnc(C(=O)Nc3cc(NC(=O)COCCOCCOCCOCCNc4cccc5c4C(=O)N(C4CCC(=O)NC4=O)C5=O)cc(C(C)(C)C)c3)c2C)c1 (stereo not drawn) [Compound M17, N-(3-(tert-butyl)-5-(14-((2-(2,6-dioxopiperidin-3-yl)-1,3-dioxoisoindolin-4-yl)amino)-3,6,9,12-tetraoxatetradecanamido)phenyl)-1-(2,5-dimethoxyphenyl)-5-methyl-1H-1,2,3-triazole-4-carboxamide] | – | – | 70% | – | 84% | 1.98 ± 0.25 µM | – |
| COc1ccc(OC)c(-n2nnc(C(=O)Nc3cc(OCCCCCCCCOc4cccc5c4C(=O)N(C4CCC(=O)NC4=O)C5=O)cc(C(C)(C)C)c3)c2C)c1 (stereo not drawn) [Compound M16, N-(3-(tert-butyl)-5-((8-((2-(2,6-dioxopiperidin-3-yl)-1,3-dioxoisoindolin-4-yl)oxy)octyl)oxy)phenyl)-1-(2,5-dimethoxyphenyl)-5-methyl-1H-1,2,3-triazole-4-carboxamide] | – | – | 57% | 2.02 ± 0.47 µM | – | – | – |
